Reference: PubChem BioAssay AID1963965 (Molecular Pharmacology Branch, DTP, NCI, 2024)

Test system: 996289-038-R-J1-PDC spheroid viability
Experiment: Anticancer human tumor 996289-038-R-J1-PDC patient-derived colon adenocarcinoma cell line growth inhibition [PI3K]
Settings: spheroids with HUVEC and MSC; for IC50: curve of first compound; for viability, T/C: stronger effect = lower value
How it was run: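 Stroma-containing spheroids: tumor line, pooled-donor HUVEC, hMSC. Treatments: targeted agents with PI3K inhibitors. Dosing: clinically relevant, half-log spacing, 10 microM ceiling without known Cmax. Read-out: cell viability.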

[1] = second compound 0.00316 µM, first compound 0.0316 µM
[2] = second compound 0.00316 µM, first compound 0.1 µM
[3] = second compound 0.00316 µM, first compound 0.316 µM
[4] = second compound 0.00316 µM, first compound 1 µM
[5] = second compound 0.00316 µM, first compound 3.16 µM
[6] = second compound 0.00316 µM, first compound 10 µM
[7] = second compound 0.01 µM, first compound 0.0316 µM
[8] = second compound 0.01 µM, first compound 0.1 µM
[9] = second compound 0.01 µM, first compound 0.316 µM
[10] = second compound 0.01 µM, first compound 1 µM
[11] = second compound 0.01 µM, first compound 3.16 µM
[12] = second compound 0.01 µM, first compound 10 µM
[13] = second compound 0.0316 µM, first compound 0.0316 µM
[14] = second compound 0.0316 µM, first compound 0.1 µM
[15] = second compound 0.0316 µM, first compound 0.316 µM
[16] = second compound 0.0316 µM, first compound 1 µM
[17] = second compound 0.0316 µM, first compound 3.16 µM
[18] = second compound 0.0316 µM, first compound 10 µM
[19] = second compound 0.1 µM, first compound 0.0316 µM
[20] = second compound 0.1 µM, first compound 0.1 µM
[21] = second compound 0.1 µM, first compound 0.316 µM
[22] = second compound 0.1 µM, first compound 1 µM
[23] = second compound 0.1 µM, first compound 3.16 µM
[24] = second compound 0.1 µM, first compound 10 µM
[25] = second compound 0.316 µM, first compound 0.0316 µM
[26] = second compound 0.316 µM, first compound 0.1 µM
[27] = second compound 0.316 µM, first compound 0.316 µM
[28] = second compound 0.316 µM, first compound 1 µM
[29] = second compound 0.316 µM, first compound 3.16 µM
[30] = second compound 0.316 µM, first compound 10 µM
[31] = second compound 1 µM, first compound 0.0316 µM
[32] = second compound 1 µM, first compound 0.1 µM
[33] = second compound 1 µM, first compound 0.316 µM
[34] = second compound 1 µM, first compound 1 µM
[35] = second compound 1 µM, first compound 3.16 µM
[36] = second compound 1 µM, first compound 10 µM
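Further: spheroids exposed to compounds for seven days before viability read.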
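Wherever viability, T/C is given: luminescence used as a proxy for viable cell amount; percent viability relative to DMSO vehicle control as 100%.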

## CC1(C)CCC(CN2CCN(c3ccc(C(=O)NS(=O)(=O)c4ccc(NCC5CCOCC5)c([N+](=O)[O-])c4)c(Oc4cnc5[nH]ccc5c4)c3)CC2)=C(c2ccc(Cl)cc2)C1 + CC(Nc1ccc2c(c1)OCCn1cc(N3C(=O)OCC3C(F)F)nc1-2)C(N)=O
Second compound 0.00316 µM
  IC50: 8.46 µM
Second compound 0.01 µM
  IC50: 8.25 µM
Second compound 0.0316 µM
  IC50: 6.53 µM
Second compound 0.1 µM
  IC50: 6.52 µM
Second compound 0.316 µM
  IC50: 4.81 µM
Second compound 1 µM
  IC50: 4.21 µM
[1]
  viability, T/C: 83.7%
[2]
  viability, T/C: 77.4%
[3]
  viability, T/C: 95.8%
[4]
  viability, T/C: 112%
[5]
  viability, T/C: 93.5%
[6]
  viability, T/C: 42.7%
[7]
  viability, T/C: 92.3%
[8]
  viability, T/C: 86.7%
[9]
  viability, T/C: 87.4%
[10]
  viability, T/C: 111%
[11]
  viability, T/C: 94.5%
[12]
  viability, T/C: 41%
[13]
  viability, T/C: 95.2%
[14]
  viability, T/C: 88.2%
[15]
  viability, T/C: 94.7%
[16]
  viability, T/C: 84.2%
[17]
  viability, T/C: 90%
[18]
  viability, T/C: 26.5%
[19]
  viability, T/C: 80.3%
[20]
  viability, T/C: 81.4%
[21]
  viability, T/C: 79.1%
[22]
  viability, T/C: 96.7%
[23]
  viability, T/C: 86.3%
[24]
  viability, T/C: 29.4%
[25]
  viability, T/C: 70.3%
[26]
  viability, T/C: 62.3%
[27]
  viability, T/C: 61.7%
[28]
  viability, T/C: 61.2%
[29]
  viability, T/C: 74.6%
[30]
  viability, T/C: 22%
[31]
  viability, T/C: 55.5%
[32]
  viability, T/C: 50.7%
[33]
  viability, T/C: 59.3%
[34]
  viability, T/C: 59.8%
[35]
  viability, T/C: 73.3%
[36]
  viability, T/C: 25.9%

## C[C@@H](NC(=O)c1ncnc(N)c1Cl)c1ncc(C(=O)Nc2cc(C(F)(F)F)c(Cl)cn2)s1 + CC(Nc1ccc2c(c1)OCCn1cc(N3C(=O)OCC3C(F)F)nc1-2)C(N)=O
Second compound 0.00316 µM
  IC50: > 10 µM
Second compound 0.01 µM
  IC50: > 10 µM
Second compound 0.0316 µM
  IC50: > 10 µM
Second compound 0.1 µM
  IC50: > 10 µM
Second compound 0.316 µM
  IC50: > 10 µM
Second compound 1 µM
  IC50: > 10 µM
[1]
  viability, T/C: 115%
[2]
  viability, T/C: 124%
[3]
  viability, T/C: 129%
[4]
  viability, T/C: 123%
[5]
  viability, T/C: 135%
[6]
  viability, T/C: 122%
[7]
  viability, T/C: 119%
[8]
  viability, T/C: 124%
[9]
  viability, T/C: 107%
[10]
  viability, T/C: 139%
[11]
  viability, T/C: 140%
[12]
  viability, T/C: 122%
[13]
  viability, T/C: 116%
[14]
  viability, T/C: 103%
[15]
  viability, T/C: 111%
[16]
  viability, T/C: 120%
[17]
  viability, T/C: 128%
[18]
  viability, T/C: 111%
[19]
  viability, T/C: 93.7%
[20]
  viability, T/C: 93.1%
[21]
  viability, T/C: 91.7%
[22]
  viability, T/C: 119%
[23]
  viability, T/C: 107%
[24]
  viability, T/C: 110%
[25]
  viability, T/C: 70%
[26]
  viability, T/C: 87.6%
[27]
  viability, T/C: 87.2%
[28]
  viability, T/C: 105%
[29]
  viability, T/C: 109%
[30]
  viability, T/C: 83.3%
[31]
  viability, T/C: 68%
[32]
  viability, T/C: 78.1%
[33]
  viability, T/C: 57.8%
[34]
  viability, T/C: 81.9%
[35]
  viability, T/C: 85.6%
[36]
  viability, T/C: 65.3%
